Reference: article PMC11467737, “Osteocalcin binds to a GPRC6A Venus fly trap allosteric site to positively modulate GPRC6A signaling” (FASEB BioAdvances, 2024)
Residue numbers refer to the chain shown, from its start. Bridge positions count the residues as written; N and C are the ends. Ends that are not written are not given here.

What was measured:
H355P hGPRC6A [1] = target: T1, H355P hGPRC6A (Homo sapiens, UniProt Q5T6X5, H355P); experiment: cAMP accumulation in HEK-293 cells transfected with H355P hGPRC6A; type: cell-based; settings: H355P mutant; for cAMP accumulation by Ocn small fragments: fragment at 20 nM, Figure 6C
T1 construct: expressed in transfected cells; host or cells: HEK-293, pcDNA3
T1 sequence (Q5T6X5 19-926 H355P): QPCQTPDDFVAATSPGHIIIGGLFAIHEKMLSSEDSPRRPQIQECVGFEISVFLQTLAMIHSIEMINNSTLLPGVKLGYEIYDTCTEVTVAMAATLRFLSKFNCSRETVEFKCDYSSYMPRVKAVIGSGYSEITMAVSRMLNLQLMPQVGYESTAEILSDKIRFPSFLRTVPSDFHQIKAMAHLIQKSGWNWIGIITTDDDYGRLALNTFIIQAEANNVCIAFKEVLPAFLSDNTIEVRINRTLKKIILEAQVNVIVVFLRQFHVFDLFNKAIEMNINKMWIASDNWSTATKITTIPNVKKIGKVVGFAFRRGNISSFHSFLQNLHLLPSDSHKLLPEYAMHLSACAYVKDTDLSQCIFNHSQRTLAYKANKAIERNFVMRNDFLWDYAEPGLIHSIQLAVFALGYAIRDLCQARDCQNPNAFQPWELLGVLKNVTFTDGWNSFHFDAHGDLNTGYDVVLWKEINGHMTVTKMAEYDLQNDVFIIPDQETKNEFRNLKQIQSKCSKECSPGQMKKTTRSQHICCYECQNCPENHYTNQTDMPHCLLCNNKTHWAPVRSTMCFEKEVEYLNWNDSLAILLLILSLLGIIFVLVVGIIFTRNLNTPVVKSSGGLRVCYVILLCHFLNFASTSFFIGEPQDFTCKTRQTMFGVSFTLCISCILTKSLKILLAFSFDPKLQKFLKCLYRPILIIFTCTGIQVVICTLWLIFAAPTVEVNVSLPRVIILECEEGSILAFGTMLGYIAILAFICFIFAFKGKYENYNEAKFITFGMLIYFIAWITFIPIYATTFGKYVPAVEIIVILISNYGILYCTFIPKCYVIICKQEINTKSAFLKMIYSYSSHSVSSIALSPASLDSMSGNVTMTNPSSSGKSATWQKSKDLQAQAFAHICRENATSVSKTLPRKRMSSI
Procedure: (§1) HEK‐293 transfected with human GPRC6A isoform cDNA plasmids cells (10^5 cells/well)[30] were cultured in 24‐well plates in DMEM supplemented with 10% fetal bovine serum and 1% penicillin/streptomycin (100 U/mL of penicillin and 100 μg/mL of streptomycin) for 48 h followed by 4 h incubation in DMEM/F12 containing 0.1% BSA and 0.5 mM IBMX to achieve quiescence and preventing cAMP degradation. Quiescent cells were treated with vehicle control, various ligands at concentration as indicated for 40 min at 37°C. Then, the reaction was stopped, and the cells lysed with 0.5 mL 0.1 N HCl. cAMP levels were measured by using Cyclic AMP EIA kit (Cayman Chemical; Ann Arbor, MA, USA) following the manufacture's protocol.
(§2) In‐vitro mutagenesis by PCR‐mediated recombination QuikChange II XL Site‐Directed Mutagenesis Kit (Agilent) was performed using the cDNA of human GPRC6A cloned in the vector pcDNA3 (Invitrogen) as a template. The primer sets are as follows. K352E.sen: […]; K352E.antisen: […]; H355P.sen: […]; H355P.antisen: […]; K352E/H355P.sen: […]; and K352E/H355P.antisen: […]. All mutants were confirmed by sequencing.

K352E/H355P hGPRC6A [2] = target: T2, K352E/H355P hGPRC6A (Homo sapiens, UniProt Q5T6X5, H355P/K352E); experiment: cAMP accumulation in HEK-293 cells transfected with K352E/H355P hGPRC6A; type: cell-based; settings: for cAMP accumulation by Ocn small fragments: K352E/H355P double mutant, fragment at 20 nM, Figure 6C
T2 construct: expressed in transfected cells; host or cells: HEK-293, pcDNA3
T2 sequence (Q5T6X5 19-926 K352E/H355P): T1 sequence (Q5T6X5 19-926 H355P) with K334E
Procedure: as §1, §2

H355P hGPRC6A [3] = target: T1, H355P hGPRC6A; experiment: ERK activation in HEK-293 cells transfected with H355P hGPRC6A; type: cell-based; settings: H355P mutant; for ERK activation by Ocn small fragments: fragment at 20 nM, Figure 6D
Procedure: (§3) All culture reagents were from Invitrogen (Waltham, MA, USA). Human embryonic kidney HEK‐293 cells were obtained from American Type Culture Collection and cultured in DMEM medium supplemented with 10% fetal bovine serum and 1% Penicillin/Streptomycin (P/S). Briefly, HEK‐293 cells transfected with/without human GPRC6A isoforms cDNA plasmids were starved by overnight incubation in serum‐free DMEM/F12 containing 0.1% bovine serum albumin (BSA) and stimulated with various ligands at different doses. ERK activation was assessed 20 min after treatment by using ERK1/2 (phospho‐T203/Y204) ELISA Kit (Invitrogen; Waltham, MA, USA) corrected for the amount of total ERK using ERK1/2 (Total) ELISA Kit (Invitrogen; Waltham, MA, USA) to measure ERK levels.
as §2

[4] = test system: GPRC6A isoforms 1, 2 and 3; experiment: GPRC6A signaling in GPRC6A isoforms (read-out not given); type: cell-based, human
Procedure: as §3
as §1, with “Quiescent cells were treated with vehicle control, various ligands at concentration as indicated for 40 min at 37°C.” left out

K352E/H355P hGPRC6A [5] = target: T2, K352E/H355P hGPRC6A; experiment: ERK activation in HEK-293 cells transfected with K352E/H355P hGPRC6A; type: cell-based; settings: for ERK activation by Ocn small fragments: K352E/H355P double mutant, fragment at 20 nM, Figure 6D
Procedure: as §3, §2

Substance	cAMP accumulation by Ocn small fragments (H355P hGPRC6A [1])	cAMP accumulation by Ocn small fragments (K352E/H355P hGPRC6A [2])	ERK activation by Ocn small fragments (H355P hGPRC6A [3])	Response of GPRC6A isoforms 2 and 3 ([4]; isoforms 2 and 3)	ERK activation by Ocn small fragments (K352E/H355P hGPRC6A [5])	Activation of GPRC6A signaling in GPRC6A isoforms ([4]; all isoforms, including isoforms 2 and 3 with deletions in the VFT)	cAMP accumulation, dose response of full-length Ocn, versus wild-type receptor (H355P hGPRC6A [1]; Figure 6A)	cAMP accumulation, dose response of full-length Ocn, versus wild-type receptor (K352E/H355P hGPRC6A [2]; K352E/H355P mutant, Figure 6A)	ERK phosphorylation, dose response of full-length Ocn, versus wild-type receptor (H355P hGPRC6A [3]; Figure 6B)	ERK phosphorylation, dose response of full-length Ocn, versus wild-type receptor (K352E/H355P hGPRC6A [5]; K352E/H355P mutant, Figure 6B)
REVCELNPDC (disulfide 4-10 (inferred)) [Ocn 20–29, synthesized human Ocn decapeptide fragment located in the middle of the protein]	no response	no response	no response	diminished responses	no response					
RFYGPV [Ocn 44–49, synthesized human Ocn C‐terminal hexapeptide]	significantly attenuated	partially activate	significantly attenuated		partially activate	activated GPRC6A signaling in all GPRC6A isoforms				
osteocalcin (YLYQWLGAPVPYPDPLEPRREVCELNPDCDELADHIGFQEAYRRFYGPV; not fully specified; ends and bridges not checked; UniProt P02818 52-100, looked up) [Ocn 1–49, full human Ocn (49 aa) synthesized by BioMatik; methods also describe decarboxylated Ocn purified from bovine tibial bone, reference compound]							significantly decreased	significantly decreased	significantly decreased	significantly decreased
